According to patent US9409866B2, “Pyridine-2-amides useful as CB2 agonists” (Hoffmann-La Roche Inc., priority 2012, dated 2016):
Where two headings read alike, the source gives them in different places.

What was measured:
human CB1 receptors = human CB1 receptors (Homo sapiens (Human), UniProt P21554); assay: functional cAMP assay, CHO cells expressing human CB1; type: cell-based
Procedure, shortened: (§1)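 CHO cells expressing human CB1 or CB2 were preincubated 30 min at 30 °C in Krebs Ringer bicarbonate with 1 mM IBMX, then exposed to compound 30 min at 30 °C. cAMP quantified by TR-FRET competition (Alexa700 antibody/ruthenium-cAMP) against a 10 μM–0.13 nM standard curve; EC50 derived.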

human CB2 receptors = human CB2 receptors (Homo sapiens (Human), UniProt P34972); assay: functional cAMP assay, CHO cells expressing human CB2; type: cell-based
Chain of human CB2 receptors (P34972 whole entry): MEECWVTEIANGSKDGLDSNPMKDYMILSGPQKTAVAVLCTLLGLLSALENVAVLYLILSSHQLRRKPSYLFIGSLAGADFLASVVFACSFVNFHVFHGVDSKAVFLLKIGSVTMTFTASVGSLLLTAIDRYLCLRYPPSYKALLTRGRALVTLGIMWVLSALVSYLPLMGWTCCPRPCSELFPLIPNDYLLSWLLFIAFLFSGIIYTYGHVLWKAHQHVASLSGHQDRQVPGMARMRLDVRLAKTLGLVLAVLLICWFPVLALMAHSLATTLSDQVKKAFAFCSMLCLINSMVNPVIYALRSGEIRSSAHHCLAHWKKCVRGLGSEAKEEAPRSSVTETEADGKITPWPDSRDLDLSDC
Procedure, shortened: as §1

[1] = functional cAMP assay, CHO cells expressing human CB1; read-out: Human CB1 EC50
[2] = Human CB1 EC50 (uM), functional cAMP assay, CHO cells expressing human CB1
[3] = read-out: Human CB1 EC50; functional cAMP assay, CHO cells expressing human CB1

Chain of human CB1 receptors (P21554 whole entry): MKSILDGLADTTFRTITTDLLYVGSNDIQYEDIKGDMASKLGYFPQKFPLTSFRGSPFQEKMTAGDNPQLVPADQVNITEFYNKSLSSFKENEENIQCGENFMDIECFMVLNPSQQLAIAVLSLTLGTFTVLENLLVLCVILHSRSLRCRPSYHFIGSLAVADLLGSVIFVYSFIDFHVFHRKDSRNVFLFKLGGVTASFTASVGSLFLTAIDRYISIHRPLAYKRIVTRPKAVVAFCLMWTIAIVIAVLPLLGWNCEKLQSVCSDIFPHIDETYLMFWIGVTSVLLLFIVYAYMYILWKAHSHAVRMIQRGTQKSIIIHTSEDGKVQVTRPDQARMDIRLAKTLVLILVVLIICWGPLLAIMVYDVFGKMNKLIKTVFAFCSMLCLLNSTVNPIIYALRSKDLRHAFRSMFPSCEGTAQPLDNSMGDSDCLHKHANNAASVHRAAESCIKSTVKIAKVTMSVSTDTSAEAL

| SMILES | EC50 (human CB1 receptors; [1]) | EC50 (human CB2 receptors; read-out: Human CB2 EC50) | EC50 (human CB1 receptors; [2]) | EC50 (human CB2 receptors; Human CB2 EC50 (uM)) | EC50 (human CB1 receptors; [3]) |
| --- | --- | --- | --- | --- | --- |
| Cc1nc(C(C)(CC2CC2)NC(=O)c2cc(O[C@@H](C)C(F)(F)F)c(C3(F)COC3)cn2)no1 (stereo partly drawn) [Example 171, N-[1-cyclopropyl-2-(5-methyl-1,2,4-oxadiazol-3-yl)propan-2-yl]-5-(3-fluorooxetan-3-yl)-4-[(2S)-1,1,1-trifluoropropan-2-yl]oxypyridine-2-carboxamide] | > 10 µM | 0.0149 µM | – | – | – |
| CC(C)C[C@H](NC(=O)c1cc(OCC2CC2)c(C2CC2)cn1)C(N)=O [Example 47, 5-Cyclopropyl-4-cyclopropylmethoxy-pyridine-2-carboxylic acid ((S)-1-carbamoyl-3-methyl-butyl)-amide] | > 10 µM | 0.0118 µM | – | – | – |
| Cc1nc([C@@](C)(CC2CC2)NC(=O)c2cc(OCC(F)(F)F)c(Cl)cn2)no1 (single isomer, unassigned) [Example 93, 5-Chloro-4-(2,2,2-trifluoro-ethoxy)-pyridine-2-carboxylic acid [2-cyclopropyl-1-methyl-1-(5-methyl-[1,2,4]oxadiazol-3-yl)-ethyl]-amide] | – | – | > 10 µM | 0.0651 µM | – |
| Cc1nc(C(C)(NC(=O)c2cc(OCC(F)(F)F)c(C3(F)CCC3)cn2)C2CC2)no1 (single isomer, unassigned) [Example 307, N-(1-cyclopropyl-1-(5-methyl-1,2,4-oxadiazol-3-yl)ethyl)-5-(1-fluorocyclobutyl)-4-(2,2,2-trifluoroethoxy)picolinamide] | – | – | 0.032 µM | 0.0034 µM | – |
| CNC(=O)[C@H](C)C(C)(C)NC(=O)c1cc(OCC2CC2)c(Cl)cn1 [Example 35, (+)-5-Chloro-4-cyclopropylmethoxy-pyridine-2-carboxylic acid (1,1-dimethyl-2-methylcarbamoyl-propyl)-amide] | > 10 µM | 0.143 µM | – | – | – |
| Cc1nc(C(C)(CS(C)(=O)=O)NC(=O)c2cc(OCC(F)(F)F)c(C3(O)CCC3)cn2)no1 (stereo not drawn) [Example 129, 5-(1-hydroxycyclobutyl)-N-[2-(5-methyl-1,2,4-oxadiazol-3-yl)-1-methylsulfonylpropan-2-yl]-4-(2,2,2-trifluoroethoxy)pyridine-2-carboxamide] | > 10 µM | 1.09 µM | – | – | – |
| Cc1nc(C(C)(CS(C)(=O)=O)NC(=O)c2cc(OC(C)CF)c(C3CC3)cn2)no1 (single isomer, unassigned) [Example 296, 5-cyclopropyl-4-(1-fluoropropan-2-yloxy)-N-(2-(5-methyl-1,2,4-oxadiazol-3-yl)-1-(methylsulfonyl)propan-2-yl)picolinamide] | – | – | – | 0.0422 µM | > 10 µM |
| Cc1nc(C(C)(CS(C)(=O)=O)NC(=O)c2cc(OCC(F)(F)F)c(C3CC3)cn2)no1 (stereo not drawn) [Example 84, 5-Cyclopropyl-4-(2,2,2-trifluoro-ethoxy)-pyridine-2-carboxylic acid [2-methanesulfonyl-1-methyl-1-(5-methyl-[1,2,4]oxadiazol-3-yl)-ethyl]-amide] | > 10 µM | 0.0488 µM | – | – | – |
| Cc1nc(C(NC(=O)c2cc(OCC(F)(F)F)c(C3CC3)cn2)C(C)(C)C)no1 (stereo not drawn) [Example 161, 5-cyclopropyl-N-[2,2-dimethyl-1-(5-methyl-1,2,4-oxadiazol-3-yl)propyl]-4-(2,2,2-trifluoroethoxy)pyridine-2-carboxamide] | > 10 µM | 0.0088 µM | – | – | – |
| CCN(C(=O)c1cc(OCC2CC2)c(C2CC2)cn1)C(C)(C)C [Example 106, 5-Cyclopropyl-4-cyclopropylmethoxy-pyridine-2-carboxylic acid tert-butyl-ethyl-amide] | > 10 µM | 0.0095 µM | – | – | – |
| Cn1nnnc1C(NC(=O)c1cc(OCC(F)(F)F)c(C2CC2)cn1)C(C)(C)C (single isomer, unassigned) [Example 206, 5-cyclopropyl-N-[2,2-dimethyl-1-(1-methyltetrazol-5-yl)propyl]-4-(2,2,2-trifluoroethoxy)pyridine-2-carboxamide] | – | – | – | 0.0393 µM | > 10 µM |
| C[C@H](Oc1cc(C(=O)NC2(CC(N)=O)COC2)ncc1C1CC1)C(F)(F)F [Example 64, 5-Cyclopropyl-4-((S)-2,2,2-trifluoro-1-methyl-ethoxy)-pyridine-2-carboxylic acid (3-carbamoylmethyl-oxetan-3-yl)-amide] | > 10 µM | 0.515 µM | – | – | – |
| Cc1nc(C(NC(=O)c2cc(O[C@@H](C)C(F)(F)F)c(C3CC3)cn2)C2(C)COC2)no1 (stereo partly drawn) [Example 255, 5-cyclopropyl-N-[(5-methyl-1,2,4-oxadiazol-3-yl)-(3-methyloxetan-3-yl)methyl]-4-[(2S)-1,1,1-trifluoropropan-2-yl]oxypyridine-2-carboxamide] | > 10 µM | 0.0067 µM | – | – | – |
| Cc1nnc(C(C)(CC2CC2)NC(=O)c2cc(OCC(F)(F)F)c(C3CC3)cn2)o1 (single isomer, unassigned) [Example 184, 5-cyclopropyl-N-[1-cyclopropyl-2-(5-methyl-1,3,4-oxadiazol-2-yl)propan-2-yl]-4-(2,2,2-trifluoroethoxy)pyridine-2-carboxamide] | – | – | > 10 µM | 0.0856 µM | – |
| Cc1nc(C(C)(CC2CC2)NC(=O)c2cc(OCC(F)(F)F)c(C3CC3)cn2)no1 (single isomer, unassigned; enantiomer a) [Example 66, 5-Cyclopropyl-4-(2,2,2-trifluoro-ethoxy)-pyridine-2-carboxylic acid [2-cyclopropyl-1-methyl-1-(5-methyl-[1,2,4]oxadiazol-3-yl)-ethyl]-amide (enantiomer A)] | – | – | > 10 µM | 0.00595 µM | – |
| Cc1nnc(C(NC(=O)c2cc(OCC(F)(F)F)c(C3CC3)cn2)C(C)(C)C)o1 (single isomer, unassigned) [Example 178, 5-cyclopropyl-N-[2,2-dimethyl-1-(5-methyl-1,3,4-oxadiazol-2-yl)propyl]-4-(2,2,2-trifluoroethoxy)pyridine-2-carboxamide] | – | – | > 10 µM | 0.0105 µM | – |
| CC(CC(N)=O)(NC(=O)c1cc(OCC(F)(F)F)c(C2CC2)cn1)C1CC1 (stereo not drawn) [Example 230, N-(4-amino-2-cyclopropyl-4-oxobutan-2-yl)-5-cyclopropyl-4-(2,2,2-trifluoroethoxy)pyridine-2-carboxamide] | > 10 µM | 0.0009 µM | – | – | – |
| Cc1nc(C(C)(CC2CC2)NC(=O)c2cc(OCC(F)(F)F)c(C3CCC3)cn2)no1 (single isomer, unassigned) [Example 116, 5-cyclobutyl-N-[1-cyclopropyl-2-(5-methyl-1,2,4-oxadiazol-3-yl)propan-2-yl]-4-(2,2,2-trifluoroethoxy)pyridine-2-carboxamide] | – | – | > 10 µM | 0.0041 µM | – |
| CN(C)C(=O)CC1(NC(=O)c2cc(OCC(F)(F)F)c(Cl)cn2)COC1 [Example 85, 5-Chloro-4-(2,2,2-trifluoro-ethoxy)-pyridine-2-carboxylic acid (3-dimethylcarbamoylmethyl-oxetan-3-yl)-amide] | > 10 µM | 0.362 µM | – | – | – |
| Cc1nc(C(C)(NC(=O)c2cc(OCC(F)(F)F)c(C3CC3)cn2)C(=O)N2CC(F)(F)C2)no1 (stereo not drawn) [Example 147, 5-cyclopropyl-N-[1-(3,3-difluoroazetidin-1-yl)-2-(5-methyl-1,2,4-oxadiazol-3-yl)-1-oxopropan-2-yl]-4-(2,2,2-trifluoroethoxy)pyridine-2-carboxamide] | > 10 µM | 0.0454 µM | – | – | – |
| Cc1nc(C(C)(CC2CC2)NC(=O)c2cc(OC(C)CF)c(C3CC3)cn2)no1 (single isomer, unassigned) [Example 288, 5-cyclopropyl-N-(1-cyclopropyl-2-(5-methyl-1,2,4-oxadiazol-3-yl)propan-2-yl)-4-(1-fluoropropan-2-yloxy)picolinamide] | – | – | – | 0.0008 µM | > 10 µM |
| NC(=O)CC1(NC(=O)c2cc(OCC(F)(F)F)c(C3CC3)cn2)CS(=O)(=O)C1 [Example 160, N-[3-(2-amino-2-oxoethyl)-1,1-dioxothietan-3-yl]-5-cyclopropyl-4-(2,2,2-trifluoroethoxy)pyridine-2-carboxamide] | > 10 µM | 0.0118 µM | – | – | – |
| Cc1nc(C(C)(CS(C)(=O)=O)NC(=O)c2cc(OC(C)CF)c(C3CC3)cn2)no1 (single isomer, unassigned) [Example 295, 5-cyclopropyl-4-(1-fluoropropan-2-yloxy)-N-(2-(5-methyl-1,2,4-oxadiazol-3-yl)-1-(methylsulfonyl)propan-2-yl)picolinamide] | – | – | > 10 µM | 0.0024 µM | – |
| CC(C)(C)C(NC(=O)c1cc(OCC2CC2)c(N2CC(F)(F)C2)cn1)C(N)=O (single isomer, unassigned) [Example 261, N-[1-amino-3,3-dimethyl-1-oxobutan-2-yl]-4-(cyclopropylmethoxy)-5-(3,3-difluoroazetidin-1-yl)pyridine-2-carboxamide] | – | – | – | 0.0211 µM | > 10 µM |
| CNC(=O)[C@@H](NC(=O)c1cc(O[C@@H](C)C(F)(F)F)c(C2(F)COC2)cn1)C(C)(C)C [Example 172, N-[(2S)-3,3-dimethyl-1-(methylamino)-1-oxobutan-2-yl]-5-(3-fluorooxetan-3-yl)-4-[(2S)-1,1,1-trifluoropropan-2-yl]oxypyridine-2-carboxamide] | > 10 µM | 0.0329 µM | – | – | – |
| Cc1nc(C(NC(=O)c2cc(O[C@@H](C)C(F)(F)F)c(C3CC3)cn2)C(C)(C)C)no1 (stereo partly drawn) [Example 214, 5-cyclopropyl-N-[2,2-dimethyl-1-(5-methyl-1,2,4-oxadiazol-3-yl)propyl]-4-[(2S)-1,1,1-trifluoropropan-2-yl]oxypyridine-2-carboxamide] | > 10 µM | 0.008 µM | – | – | – |
| Cc1nc(C(C)(CO)NC(=O)c2cc(OCC(F)(F)F)c(C3CC3)cn2)no1 (single isomer, unassigned) [Example 141, 5-cyclopropyl-N-[1-hydroxy-2-(5-methyl-1,2,4-oxadiazol-3-yl)propan-2-yl]-4-(2,2,2-trifluoroethoxy)pyridine-2-carboxamide] | – | – | – | 0.0968 µM | > 10 µM |
